As to `CC(=O)CC(=O)Nc1nc2ccc(NC(C)=O)cc2s1`, the melting point was in the range of 248 to 250 °C.

With `O=C1CCc2c1cccc2-c1ccccc1`, the melting point lay within 85 to 90 °C.

On to `Oc1cccc(-c2ncc3ncc(Cl)cc3n2)c1`, for which the melting point was 252 to 253 °C.

In turn, `CC(C)(C)c1ccc2nc3c(c(O)c2c1)CCCC3` had a melting point of 320 to 322 °C.

Compound `COc1ccc(-c2nc(COc3cccc(N)c3)c(C)o2)cc1` registered a melting point of 132 to 134 °C.

Compound `COC(=O)c1cc(Cl)cnc1NCc1ccccc1` returned a melting point of 77 to 79 °C.

In the case of `C/C=C/Cn1c(Oc2cc(C)cc(C)c2)c(CC)c(=O)[nH]c1=O`, the melting point lay in the range of 149 to 150 °C.

The compound `Cn1nnnc1SCc1c(S(C)(=O)=O)ccc(C(=O)C2=C(Sc3ccccc3)CCCC2=O)c1Cl` returned a melting point of 76 to 87 °C.

As to `c1ccc(Cn2c3ccccc3c3ccsc32)cc1`, the melting point was in the range of 96 to 98 °C.

`CCCn1cnc(CO)c1C`: the melting point lay in the range of 88 to 88.5 °C.

On to `CC1C(=C[N+](=O)[O-])Nc2ccc(Cl)cc2C(c2ccccc2F)=[N+]1[O-]` (stereo unspecified), for which the melting point was 198 to 200 °C.

Compound `CN1C[C@H](CN2CCN(C(c3ccccc3)c3ccccc3)CC2)C[C@@H]2c3cccc4[nH]c(Cl)c(c34)C[C@H]21` registered a melting point of 250 °C.

Consider `CCOP(=O)(CC(=O)N(CC)c1cn(-c2cccnc2)nc1Cl)OCC`, for which the melting point was in the range of 46 to 48 °C.

Turning to `CON(c1ccc([N+](=O)[O-])cc1[N+](=O)[O-])S(=O)(=O)c1cccc(Cl)c1`, the melting point was 157 to 159 °C.

`COc1ccc2c(c1OC)CCC2c1c[nH]cn1` (stereo unspecified) came in with a melting point of 156 to 158 °C.

Compound `O=C1CCCC(c2ccc(Cl)cc2)O1` (stereo unspecified) came in with a melting point of 110 to 111 °C.

In the case of `CCOC(=O)c1cc(I)c(F)c(F)c1F`, the melting point fell in the range of 33 to 34 °C.

`OC(Cc1cnc(-c2c(F)cccc2F)nn1)c1ccc(Cl)cc1` (stereo unspecified) gave a melting point of 98 to 102 °C.

`CCOC(=O)c1ccc(C(F)(F)F)cc1SC` had a melting point of 44 to 45 °C.

For `NC(=O)N1C(=O)C(=C(OC(=O)C=Cc2ccccc2)c2cccs2)c2cc(F)c(Cl)cc21`, the melting point lay within 214 to 215 °C.

`CCCCCCCCN1CC=C(c2c[nH]c(-c3ccc(F)cc3)c2-c2ccncc2)CC1` came in with a melting point of 173 to 175 °C.

In turn, `COc1nc(C)nc(NC(=O)NS(=O)(=O)c2cc(OC(F)F)ccc2OC(F)F)n1` had a melting point of 113 °C.

`O=C(Nc1ccc(Oc2ccnc(NCCN3CCCCC3)n2)c2ccccc12)c1cc(F)cc(N2CCCCC2)c1`: the melting point is 88 to 89 °C.

`CC(C)(C)c1ccc(CCC(O)CC2CCCCC2)cc1NC(=O)CC1c2ccccc2Oc2ccccc21` (stereo unspecified) showed a melting point of 141 to 142 °C.

Turning to `CCCN(O)CCc1ccc2c(c1)C(=O)c1ccccc1CO2`, the melting point was 121 to 124 °C.

Take `COC1(C(=O)CCc2ccc(-c3ccc(O)cc3)cc2)C=CC(Cl)=CC1N` (stereo unspecified): the melting point fell in the range of 145 to 150 °C.

Take `Cc1cc(C)cc(CN(C)C2CCCn3c2c(-c2ccccc2)c2cc(C)c(C)cc2c3=O)c1` (stereo unspecified): the melting point fell in the range of 144 to 145 °C.

With `Cc1c(/C=C/C(=O)O)cnn1C`, the melting point was 217 to 219 °C.

`CC(C)(C)OC(=O)n1ccc2c3[nH]c(CO)nc3ccc21` registered a melting point of 152 °C.

In the case of `Cc1nccn1-c1ccc([N+](=O)[O-])cc1F`, the melting point was 106 to 107 °C.

As to `CCCCNC(=O)[C@@H]1C[C@]2(NC(=O)N(CCCCl)C2=O)c2cc(F)ccc2O1`, the melting point fell in the range of 148 to 150 °C.

`COC(=O)c1sc2ccccc2c1CBr` showed a melting point of 101 to 102 °C.

With `COc1ccc(NC(=O)CC23CC4CC(CC(C4)C2)C3)c(C)c1`, the melting point fell in the range of 156 to 157 °C.

Consider `CCOC(=O)/C=C/c1cccc(C(=O)c2ccc(C(F)(F)F)cc2)n1`, for which the melting point lay in the range of 66 to 68 °C.

On to `CCCCc1nc2ccccn2c(=O)c1-c1ccc(NC(=O)[C@@H]2CCCN2C(=O)OC(C)(C)C)cc1`, for which the melting point lay within 179 to 187 °C.

`CN(C)Cc1cccc(-c2cc3c4c(ccn4C(=O)CNC3)c2)c1` came in with a melting point of 98 to 100 °C.

The values are drawn from a melting point compilation (Tetko et al.; mined from patent text by program, amines drawn as free bases though some values may be those of a salt).
